Results taken from patent publication US8193237B2, “Indole derivative having IκB kinase β inhibitory activity” (Santen Pharmaceutical Co., Ltd., priority 2007, dated 2012).

What follows are compounds tested against T1, IKKβ (Homo sapiens, UniProt O14920) (assay: IKKβ inhibition assay by fluorescence polarization (IMAP kit)). Settings: test compound at 1 μM; inhibition rate exceeding 100% is indicated as 100%.
T1 construct: purchased Upstate Biotechnology Inc. 14-485
T1 sequence (O14920 1-756): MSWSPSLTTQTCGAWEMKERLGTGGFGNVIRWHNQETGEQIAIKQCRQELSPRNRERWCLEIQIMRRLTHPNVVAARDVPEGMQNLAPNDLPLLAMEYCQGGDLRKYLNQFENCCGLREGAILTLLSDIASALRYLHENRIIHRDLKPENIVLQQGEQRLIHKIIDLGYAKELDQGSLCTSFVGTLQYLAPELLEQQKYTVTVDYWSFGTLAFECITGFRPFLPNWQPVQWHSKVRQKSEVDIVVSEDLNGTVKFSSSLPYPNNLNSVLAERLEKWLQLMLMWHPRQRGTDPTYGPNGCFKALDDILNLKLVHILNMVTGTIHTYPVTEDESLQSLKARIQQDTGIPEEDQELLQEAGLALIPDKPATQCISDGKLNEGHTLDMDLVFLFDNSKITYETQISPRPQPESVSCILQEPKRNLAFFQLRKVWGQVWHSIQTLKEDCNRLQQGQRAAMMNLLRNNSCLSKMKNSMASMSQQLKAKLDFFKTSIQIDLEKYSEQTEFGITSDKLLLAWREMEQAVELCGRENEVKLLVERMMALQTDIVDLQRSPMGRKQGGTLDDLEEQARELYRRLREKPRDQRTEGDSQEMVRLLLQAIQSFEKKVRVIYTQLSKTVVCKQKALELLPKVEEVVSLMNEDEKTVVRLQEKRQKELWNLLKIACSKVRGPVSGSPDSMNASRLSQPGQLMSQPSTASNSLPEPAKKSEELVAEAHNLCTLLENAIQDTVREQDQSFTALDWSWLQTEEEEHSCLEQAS
Assay type: biochemical
Protocol: In order to evaluate IKKβ inhibitory activity of the present compounds, an IKKβ inhibition assay by the fluorescence polarization method was conducted.
The assay was conducted using IMAP™ IKKβ assay kit (manufactured by Molecular Devices Corporation, catalogue No. R8115) or IMAP™ FP Screening Express kit (manufactured by Molecular Devices Corporation, catalogue No. R8127) and in accordance with the protocol attached to each kit. The specific methods are described below. (Preparation of Reagents)
1) Complete Reaction Buffer: a complete reaction buffer was so prepared as to obtain a final concentration of 10 mM Tris-HCL (pH 7.2), 10 mM magnesium chloride, 0.1% bovine serum albumin, and 1 mM dithiothreitol.
2) Substrate Working Solution: 400 nM of a substrate working solution was prepared by dissolving and diluting a fluorescein-labeled IKKβ substrate peptide (amino acid sequence: GRHDSGLDSMK) with the complete reaction buffer.
3) Enzyme Working Solution: 0.2 units/mL of an enzyme working solution was prepared by diluting IKKβ solution (manufactured by Upstate Biotechnology Inc., catalogue No. 14-485) with the complete reaction buffer.
4) ATP Working Solution: 8 μM of an ATP working solution was prepared by dissolving ATP into ultrapure water followed by diluting it with the complete reaction buffer.
5) IMAP binding solution: After diluting an IMAP binding buffer with ultrapure water, an IMAP binding solution was prepared by diluting an IMAP binding reagent with the diluted IMAP binding buffer.
A test compound was dissolved in dimethylsulfoxide followed by diluting it with the complete reaction buffer to prepare 4 μM of a test compound solution.
1) To a 384-well plate, the test compound solution, the enzyme working solution, the substrate working solution, and the ATP working solution were added in an amount of 5 μL per well.
2) Incubation was performed at a room temperature for 60 minutes under light shielding.
3) The IMAP binding solution was added in an amount of 60 μL per well.
4) Incubation was performed at a room temperature for 30 minutes under light shielding.
5) Fluorescence polarization value of each well was measured by using Analyst™ HT (multimode plate reader manufactured by Molecular Devices Corporation) and Criterion Host Software v2.00 (manufactured by Molecular Devices Corporation).
6) Operations were performed in the same manner as in 1) to 5) except for changing the test compound to 0.4% dimethylsulfoxide. The obtained result was designated as a control.
7) Operations were performed in the same manner as in 1) to 5) except for changing the test compound and the enzyme working solution to 0.4% dimethylsulfoxide and the complete reaction buffer, respectively. The obtained result was designated as a background.
An IKKβ inhibition rate (%) was calculated by the following equation.
IKKβ inhibition rate (%)=100×{1−(fluorescence polarization value of test compound−fluorescence polarization value of background)/(fluorescence polarization value of control−fluorescence polarization value of background)}

| Structure (SMILES) | inhibition at 1 µM [%] |
| --- | --- |
| NC(=O)Nc1[nH]c2cc(-c3ccnc(Cl)c3)ccc2c1C(N)=O [Compound 7-26] | 98 |
| NC(=O)Nc1[nH]c2cc(C(=O)N3CCCC3)ccc2c1C(N)=O [Compound 22-2] | 70 |
| NC(=O)Nc1[nH]c2cc(-c3ccc[nH]3)ccc2c1C(N)=O [Compound 5-1, 2-Aminocarbonylamino-6-(pyrrol-2-yl)indole-3-carboxamide] | 95 |
| NC(=O)Nc1[nH]c2cc(-c3ccccc3)ccc2c1C(N)=O [Compound 4-2, 2-Aminocarbonylamino-6-phenylindole-3-carboxamide] | 100 |
| NC(=O)Nc1[nH]c2cc(-c3ccc4[nH]ccc4c3)ccc2c1C(N)=O [Compound 4-65, 2-Aminocarbonylamino-6-(indol-5-yl)indole-3-carboxamide] | 100 |
| C#Cc1ccc2c(C(N)=O)c(NC(N)=O)[nH]c2c1 [Compound 10-1, 2-aminocarbonylamino-6-ethynylindole-3-carboxamide] | 100 |
| NC(=O)Nc1[nH]c2cc(-n3cccc3)ccc2c1C(N)=O [Compound 2-9, 2-Aminocarbonylamino-6-(pyrrol-1-yl)indole-3-carboxamide] | 100 |
| CN(C)c1ccc2c(C(N)=O)c(NC(N)=O)[nH]c2c1 [Compound 2-4, 2-Aminocarbonylamino-6-dimethylaminoindole-3-carboxamide] | 95 |
| NC(=O)Nc1[nH]c2cc(-c3cnc4ccccc4c3)ccc2c1C(N)=O [Compound 4-36, 2-Aminocarbonylamino-6-(quinolin-3-yl)indole-3-carboxamide] | 99 |
| NC(=O)Nc1[nH]c2cc(C3CCCCC3)ccc2c1C(N)=O [Compound 11-4, 2-Aminocarbonylamino-6-cyclohexylindole-3-carboxamide] | 100 |
| NC(=O)Nc1[nH]c2cc(-c3ccsc3)ccc2c1C(N)=O [Compound 4-18, 2-Aminocarbonylamino-6-(thiophen-3-yl)indole-3-carboxamide] | 98 |
| NC(=O)Nc1[nH]c2cc(C#CCO)ccc2c1C(N)=O [Compound 9-2, 2-Aminocarbonylamino-6-(3-hydroxy-1-propynyl) indole-3-carboxamide] | 95 |
| CN(C)CCCc1ccc2c(C(N)=O)c(NC(N)=O)[nH]c2c1 [Compound 11-8, 2-Aminocarbonylamino-6-(3-dimethylaminopropyl) indole-3-carboxamide] | 95 |
| NC(=O)Nc1[nH]c2cc(C(=O)NCc3ccccc3)ccc2c1C(N)=O [Compound 22-9] | 100 |
| NC(=O)Nc1[nH]c2cc(-c3cccs3)ccc2c1C(N)=O [Compound 4-8, 2-Aminocarbonylamino-6-(thiophen-2-yl)indole-3-carboxamide] | 100 |
| NC(=O)Nc1[nH]c2cc(C#Cc3ccccc3)ccc2c1C(N)=O [Compound 9-1, 2-Aminocarbonylamino-6-phenylethynylindole-3-carboxamide] | 87 |
| NC(=O)Nc1[nH]c2cc(CO)ccc2c1C(N)=O [Compound 16-1, 2-Aminocarbonylamino-6-hydroxymethylindole-3-carboxamide] | 78 |
| Cc1c(-c2ccoc2)ccc2c(C(N)=O)c(NC(N)=O)[nH]c12 [Compound 4-81, 2-Aminocarbonylamino-6-(furan-3-yl)-7-methylindole-3-carboxamide] | 96 |
| COc1cccc(-c2ccc3c(C(N)=O)c(NC(N)=O)[nH]c3c2)c1 [Compound 4-4, 2-Aminocarbonylamino-6-(3-methoxyphenyl)indole-3-carboxamide] | 98 |

| Structure (SMILES) | inhibition at 1 µM [%] |
| --- | --- |
| CC(C)NCc1cccc(-c2ccc3c(C(N)=O)c(NC(N)=O)[nH]c3c2)c1 [Compound 13-5, 2-Aminocarbonylamino-6-(3-isopropylaminomethylphenyl) indole-3-carboxamide] | 100 |
| COCCCc1ccc2c(C(N)=O)c(NC(N)=O)[nH]c2c1 [Compound 11-10, 2-Aminocarbonylamino-6-(3-methoxypropyl)indole-3-carboxamide] | 94 |
| CC(=O)Nc1ccc2c(C(N)=O)c(NC(N)=O)[nH]c2c1 [Compound 2-1, 6-Acetylamino-2-aminocarbonylaminoindole-3-carboxamide] | 80 |
| NC(=O)Nc1[nH]c2cc(-c3ccsc3Cl)ccc2c1C(N)=O [Compound 4-23, 2-Aminocarbonylamino-6-(2-chlorothiophen-3-yl)indole-3-carboxamide] | 100 |
| NC(=O)Nc1[nH]c2cc(Br)ccc2c1C(N)=O [Compound 3-1, 2-Aminocarbonylamino-6-bromoindole-3-carboxamide] | 100 |
| NC(=O)Nc1[nH]c2cc(-c3cccc(CCO)c3)ccc2c1C(N)=O [Compound 7-5] | 97 |
| Cc1ccc2[nH]c(NC(N)=O)c(C(N)=O)c2c1 [Compound 1-2, 2-Aminocarbonylamino-5-methylindole-3-carboxamide] | 55 |
| CC(N)c1ccc(-c2ccc3c(C(N)=O)c(NC(N)=O)[nH]c3c2)cc1 (stereo not shown) [Compound 8-5] | 100 |
| NC(=O)Nc1[nH]c2cc(NC(=O)c3ccccc3)ccc2c1C(N)=O [Compound 2-2, 2-Aminocarbonylamino-6-benzoylaminoindole-3-carboxamide] | 49 |
| CCC/C=C/c1ccc2c(C(N)=O)c(NC(N)=O)[nH]c2c1 [Compound 4-67, 2-Aminocarbonylamino-6-[(E)-1-pentenyl]indole-3-carboxamide] | 94 |
| NC(=O)Nc1[nH]c2cc(NC(=O)Nc3ccccc3)ccc2c1C(N)=O [Compound 2-3, 2-Aminocarbonylamino-6-(3-phenylureido)indole-3-carboxamide] | 56 |
| NC(=O)Nc1[nH]c2cc(-c3cccc(CO)c3)ccc2c1C(N)=O [Compound 12-1, 2-aminocarbonylamino-6-(3-hydroxymethylphenyl)indole-3-carboxamide] | 100 |
| N#Cc1cccc(-c2ccc3c(C(N)=O)c(NC(N)=O)[nH]c3c2)c1 [Compound 4-15, 2-Aminocarbonylamino-6-(3-cyanophenyl)indole-3-carboxamide] | 100 |
| NC(=O)Nc1c(C(N)=O)c2ccc(Br)cc2n1O [Compound 1-1, 2-Aminocarbonylamino-6-bromo-1-hydroxyindole-3-carboxamide] | 86 |
| NC(=O)Nc1[nH]c2cc(-c3ccc(F)cc3)ccc2c1C(N)=O [Compound 4-1, 2-Aminocarbonylamino-6-(4-fluorophenyl)indole-3-carboxamide] | 97 |
| NC(=O)Nc1[nH]c2cc(-c3cccnc3)ccc2c1C(N)=O [Compound 4-9, 2-Aminocarbonylamino-6-(pyridin-3-yl)indole-3-carboxamide] | 100 |
| C[C@H](O)c1cccc(-c2ccc3c(C(N)=O)c(NC(N)=O)[nH]c3c2)c1 [Compound 7-45] | 98 |
| NC(=O)Nc1[nH]c2cc(-c3ccoc3)ccc2c1C(N)=O [Compound 4-22, 2-Aminocarbonylamino-6-(furan-3-yl)indole-3-carboxamide] | 100 |
